Experimental data: paper PMC8010095, “Discovery of novel antituberculosis agents among 3-phenyl-5-(1-phenyl-1H-[1,2,3]triazol-4-yl)-[1,2,4]oxadiazole derivatives targeting aminoacyl-tRNA synthetases” (Scientific Reports, 2021)
Converted amounts (≈) assume the structure as drawn.

Columns and labels:
[1] = test system: moxifloxacin-resistant strain H37Rv (gyrA^D94K) (MOX3); type: cell-based, Mycobacterium tuberculosis
[2] = test system: rifampin-resistant strain H37Rv (rpoB^S450L) (ATCC #35,838); type: cell-based, Mycobacterium tuberculosis
[3] = test system: isoniazid-resistant H37Rv (katG^del) (MS015); assay: microbe, parasite or virus in culture; type: cell-based; settings: > 80% reduction in growth, screened at 20, 2 and 0.2 mg/L, 7H9 complete medium; for MIC: Mycobacterium tuberculosis, H37RV, read-out: Growth inhibition cutoff, H37Rv (katG^del)
[4] = test system: M. tuberculosis mono-resistant strains; assay: microbe, parasite or virus in culture; type: cell-based

Structure (SMILES) | Growth inhibition cutoff, H37Rv (gyrA^D94K) [1] | Growth inhibition cutoff, H37Rv (rpoB^S450L) [2] | Growth inhibition cutoff, H37Rv (katG^del) [3] | growth inhibition cutoff [4] | MIC [3] | MIC ([4]; Mycobacterium tuberculosis, read-out: growth inhibition cutoff)
COc1ccc(-c2noc(-c3nnn(-c4cc(Cl)ccc4OC)c3N)n2)cc1 [Compound 37] | > 20 mg/L | > 20 mg/L | > 20 mg/L |  |  | 
CCc1ccc(-n2nnc(-c3nc(-c4ccc(F)cc4)no3)c2N)cc1 [Compound 14] | > 20 mg/L | > 20 mg/L | > 20 mg/L |  |  | 
Nc1c(-c2nc(-c3ccc(Br)cc3)no2)nnn1-c1ccc(F)cc1 [Compound 32] | > 20 mg/L | > 20 mg/L | > 20 mg/L |  |  | 
Nc1c(-c2nc(-c3ccc(F)cc3)no2)nnn1-c1ccc(F)cc1 [Compound 12] | > 20 mg/L | > 20 mg/L | > 20 mg/L |  |  | 
CCOc1ccc(-c2noc(-c3nnn(-c4ccccc4Cl)c3N)n2)cc1 [Compound 40] | 2 to 20 mg/L | > 20 mg/L | > 20 mg/L | 5.22 to 52.2 µM |  | 
Nc1c(-c2nc(-c3ccc(F)cc3)no2)nnn1-c1ccccc1 [Compound 9] | > 20 mg/L | > 20 mg/L | > 20 mg/L |  |  | 
Nc1c(-c2nc(-c3ccccc3)no2)nnn1-c1ccc(C(F)(F)F)c(Cl)c1 [Compound 2] | > 20 mg/L | > 20 mg/L |  |  | > 20 µg/mL | 
COc1ccc(C)cc1-n1nnc(-c2nc(-c3ccc(F)cc3)no2)c1N [Compound 28] | > 20 mg/L | > 20 mg/L | > 20 mg/L |  |  | 
Nc1c(-c2nc(-c3ccc(F)cc3)no2)nnn1-c1ccc(Br)cc1 [Compound 11] | > 20 mg/L | > 20 mg/L | > 20 mg/L |  |  | 
Cc1c(-c2nc(-c3ccccc3F)no2)nnn1-c1ccc(F)c(Cl)c1 [Compound 4] | > 20 mg/L | > 20 mg/L | > 20 mg/L |  |  | 
Cc1c(-c2nc(-c3ccccc3F)no2)nnn1-c1ccc(Br)cc1 [Compound 5] | 2 to 20 mg/L | 2 to 20 mg/L | > 20 mg/L |  |  | 
COc1ccc(-n2nnc(-c3nc(-c4ccc(F)cc4)no3)c2N)cc1 [Compound 13] | > 20 mg/L | > 20 mg/L |  |  | > 20 µg/mL | 
Nc1c(-c2nc(-c3ccc(Cl)cc3)no2)nnn1-c1ccc(Br)cc1F [Compound 31] | > 20 mg/L | > 20 mg/L | > 20 mg/L |  |  | 
Cc1ccccc1-c1noc(-c2nnn(-c3ccc(Br)cc3)c2C)n1 [Compound 8] | > 20 mg/L | > 20 mg/L | > 20 mg/L |  |  | 
CCOc1ccccc1-n1nnc(-c2nc(-c3ccc(F)cc3)no2)c1N [Compound 30] | > 20 mg/L | > 20 mg/L | > 20 mg/L |  |  | 
COc1ccc(-c2noc(-c3nnn(-c4ccc(Cl)cc4)c3C)n2)cc1OC [Compound 38] | > 20 mg/L | > 20 mg/L | > 20 mg/L |  |  | 
Nc1c(-c2nc(-c3ccc(F)cc3)no2)nnn1-c1cccc(Cl)c1 [Compound 16] | > 20 mg/L | > 20 mg/L | > 20 mg/L |  |  | 
COc1ccc(-n2nnc(-c3nc(-c4ccc(F)cc4)no3)c2N)cc1OC [Compound 21] | > 20 mg/L | > 20 mg/L | > 20 mg/L |  |  | 
Nc1c(-c2nc(-c3ccc(F)cc3)no2)nnn1-c1cccc(F)c1 [Compound 15] | > 20 mg/L | > 20 mg/L | > 20 mg/L |  |  | 

Structure (SMILES) | Growth inhibition cutoff, H37Rv (gyrA^D94K) [1] | Growth inhibition cutoff, H37Rv (rpoB^S450L) [2] | Growth inhibition cutoff, H37Rv (katG^del) [3] | growth inhibition cutoff [4] | MIC [3] | MIC ([4]; Mycobacterium tuberculosis, read-out: growth inhibition cutoff)
CCOc1ccc(-c2noc(-c3nnn(-c4ccccc4F)c3N)n2)cc1 [Compound 39] | > 20 mg/L | > 20 mg/L | > 20 mg/L |  |  | 
COc1cccc(-n2nnc(-c3nc(-c4ccc(F)cc4)no3)c2N)c1 [Compound 20] | 2 to 20 mg/L | 2 to 20 mg/L | > 20 mg/L | 5.7 to 57 µM |  | 
CCOc1ccc(-c2noc(-c3nnn(-c4ccc(F)c(Cl)c4)c3N)n2)cc1 [Compound 41] | > 20 mg/L | > 20 mg/L | > 20 mg/L |  |  | 
Nc1c(-c2nc(-c3ccc(Br)cc3)no2)nnn1-c1cccc(F)c1 [Compound 33] | > 20 mg/L | > 20 mg/L | > 20 mg/L |  |  | 
COc1ccccc1-n1nnc(-c2nc(-c3ccc(Br)cc3)no2)c1N [Compound 35] | > 20 mg/L | > 20 mg/L | > 20 mg/L |  |  | 
COc1ccc(-n2nnc(-c3nc(-c4ccc(F)cc4)no3)c2N)cc1Cl [Compound 17, 3-(3-chloro-4-methoxy-phenyl)-5-[3-(4-fluoro-phenyl)-[1,2,4]oxadiazol-5-yl]-3H-[1,2,3]triazol-4-ylamine] | > 20 mg/L | > 20 mg/L | > 20 mg/L |  |  | 
Cc1c(-c2nc(-c3ccccc3F)no2)nnn1-c1cc(F)ccc1F [Compound 6] | > 20 mg/L | > 20 mg/L | > 20 mg/L |  |  | 
COc1ccccc1-n1nnc(-c2nc(-c3ccc(F)cc3)no2)c1N [Compound 26] | > 20 mg/L | > 20 mg/L | > 20 mg/L |  |  | 
Cc1cccc(-n2nnc(-c3nc(-c4ccc(F)cc4)no3)c2N)c1 [Compound 18] | > 20 mg/L | > 20 mg/L | > 20 mg/L |  |  | 
Nc1c(-c2nc(-c3ccc(F)cc3)no2)nnn1-c1ccc(Cl)cc1 [Compound 10] | > 20 mg/L | > 20 mg/L | > 20 mg/L |  |  | 
Nc1c(-c2nc(-c3ccc(F)cc3)no2)nnn1-c1ccccc1F [Compound 23] | > 20 mg/L | > 20 mg/L | > 20 mg/L |  |  | 
CCOc1ccccc1-n1nnc(-c2nc(-c3ccc(Br)cc3)no2)c1N [Compound 36] | > 20 mg/L | > 20 mg/L | > 20 mg/L |  |  | 
COc1ccc(OC)c(-n2nnc(-c3nc(-c4ccc(F)cc4)no3)c2N)c1 [Compound 29] | > 20 mg/L | > 20 mg/L | > 20 mg/L |  |  | 
Nc1c(-c2nc(-c3ccc(F)cc3)no2)nnn1-c1cccc(C(F)(F)F)c1 [Compound 19] | > 20 mg/L | > 20 mg/L | > 20 mg/L |  |  | 
COc1ccc(Cl)cc1-n1nnc(-c2nc(-c3ccc(F)cc3)no2)c1N [Compound 27] | > 20 mg/L | 2 to 20 mg/L |  |  | > 20 µg/mL | 5.17 to 51.7 µM (≈ 2 to 20 µg/mL)
Nc1c(-c2nc(-c3ccc(F)cc3)no2)nnn1-c1ccc(F)cc1F [Compound 22] | > 20 mg/L | > 20 mg/L | > 20 mg/L |  |  | 
Nc1c(-c2nc(-c3ccccc3)no2)nnn1-c1ccccc1F [Compound 1] | > 20 mg/L | > 20 mg/L | > 20 mg/L |  |  | 
Cc1c(-c2nc(-c3ccccc3Cl)no2)nnn1-c1cccc(F)c1 [Compound 7] | > 20 mg/L | > 20 mg/L | > 20 mg/L |  |  | 
